Data taken from PubChem BioAssay (NCI).
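48-hour exposure; five concentrations; linearly interpolated endpoints. The concentration for 50% growth inhibition is given as GI50. The concentration for full growth arrest is given as TGI.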

Key:
Test in all cases: inhibition of tumour cell growth, NCI panel, 48 h
[1] = test system: SK-OV-3 ovarian
[2] = test system: HCT-15 colon
[3] = test system: NCI-H226 lung
[4] = test system: SF-295 CNS
[5] = test system: HCT-116 colon
[6] = test system: HOP-62 NSCLC
[7] = test system: A549 NSCLC
[8] = test system: ACHN renal
[9] = test system: OVCAR-5 ovarian
[10] = test system: SNB-75 CNS

Row | SMILES | GI50 [1] [µM] | TGI [1] [µM] | GI50 [2] [µM] | TGI [2] [µM] | GI50 [3] [µM] | TGI [3] [µM] | GI50 [4] [µM] | TGI [4] [µM] | GI50 [5] [µM] | TGI [5] [µM] | GI50 [6] [µM] | TGI [6] [µM] | GI50 [7] [µM] | TGI [7] [µM] | GI50 [8] [µM] | TGI [8] [µM] | GI50 [9] [µM] | TGI [9] [µM] | GI50 [10] [µM] | TGI [10] [µM]
1 | Nc1nc2c([nH]1)c1[nH]c3ccccc3c1c1[nH]c3ccccc3c21 | 16.2 | 29.7 | 13.6 | 31.4 | 19.8 | 45.5 | 13.9 | 27.5 | 5.24 | 18 | 13.8 | 27.3 | 17.1 | 33.4 | 12 | 24.4 | 16.1 | 30 | 11.9 | 25.1
2 | O=C(NCCNC1=CC(=O)c2nc3ccccc3c3ccnc1c23)c1cnccn1 | > 100 | > 100 | 38 | > 100 | 90.7 | > 100 | 18.9 | > 100 | 19.8 | > 100 | 18.9 | > 100 | 36.3 | > 100 | 32.4 | > 100 | > 100 | > 100 | > 100 | > 100
3 | CC1(C)N=C(N)N=C(N)N1c1ccc(CCCCCCc2ccc(S(=O)(=O)F)cc2)cc1 |  | 23.3 |  | 20.9 |  | 1.96 |  | 22 |  | 15.3 |  | 15.8 |  | 2.76 |  | 14.4 |  | 15 |  | 24.8
4 | O=C([CH-]C(=O)c1ccccc1)c1ccccc1.[CH2-]C.[CH2-]C.[Tl+3] | 32.5 | > 100 | 15.4 | > 100 | 0.0266 | 2.38 | 15.6 | > 100 | 9.72 | 34.2 | 22.2 | > 90.2 | 20.7 | 66.3 | 24.5 | 98.7 | 40.5 | > 100 | 25.2 | > 100
5 | COc1ccc(-c2nc3sccn3c2/C=C/C(=O)c2cc(OC)c(OC)c(OC)c2)cc1 | 3.13 | 24.6 | 3.33 | > 83 | 2.95 | > 35 | 2.91 | 18.3 | 2.19 | 12.6 | 2.53 | > 25.7 | 2.92 | > 22.9 | 3.45 | > 60.9 | 3.68 | > 23.9 | 1.3 | > 20.7
6 | CCCCCCC1CCCCN1C(c1ccccc1)C(O)c1ccccc1 (stereo not given) | 12.2 | 25.1 | 5.39 | 18.1 | 7.74 | 21.9 | 4.31 | 18.4 | 3.11 | 11.7 | 10.3 | 22.5 | 7.62 | 21.4 | 10 | 21.6 | 10.1 | 22 | 11.4 | 23.7
7 | O=[N+]([O-])/C=C/c1cn(CCCCCCCCn2cc(/C=C/[N+](=O)[O-])c3ccccc32)c2ccccc12 |  | > 10 |  | > 10 |  | > 10 |  | > 10 |  | 0.396 |  | > 10 |  | > 10 |  | > 10 |  | > 10 |  | > 10
8 | Nc1cccc(C(=O)/C=C/c2ccccc2O)c1 |  | > 100 |  | > 100 |  | > 100 |  | > 100 |  | > 100 |  | > 100 |  | > 100 |  | > 100 |  | > 100 |  | > 100
9 | c1ccc2c(c1)n1nnnc1c1nnnn21 |  | > 100 |  | > 100 |  | > 100 |  | > 100 |  | > 100 |  | > 100 |  | > 100 |  | > 100 |  | > 100 |  | 84.3
10 | C=C(c1ccc(C(=O)NCCCn2ccnc2)cc1)c1cc2c(cc1C)C(C)(C)CCC2(C)C | 2.09 | 5.59 | 0.118 | 17 | 2.1 | 7.94 | 1.31 | 18.7 | 0.0398 | 1.79 | 2.46 | 11.6 | 1.14 | 16.4 | 2.16 | 14.1 | 0.953 | 12.7 | 2.46 | 7.82
11 | COc1cc(C(=O)/C=C/c2c(C)n([O-])c3ccc(Cl)cc3[n+]2=O)cc(OC)c1OC | 24.9 | > 100 | 4.26 | 30.9 | 32.6 | > 100 | 99.4 | > 100 | 2.75 | 12.2 | 21.6 | 71 | 25.4 | > 100 | 4.37 | 18 | 27 | > 100 | 5.18 | > 100
12 | COC1CCC(OS(C)(=O)=O)C(C)O1 (stereo not given) |  | > 10 |  | > 10 |  | > 10 |  | > 10 |  | > 10 |  | > 10 |  | > 10 |  | > 10 |  | > 10 |  | > 10
13 | COc1ccc2c(c1)CCC1C2CCC2(C)C(NC(=O)CCCCC3CCSS3)CCC12 (stereo not given) | 43.8 | > 100 | 8.21 | > 100 | > 100 | > 100 | > 100 | > 100 | 11.2 | > 100 | > 100 | > 100 | 32.5 | > 100 | 27.6 | > 100 | > 100 | > 100 | 18.2 | > 100
14 | COc1cc(C(=O)Nc2ccc(-c3nc4ccccc4[nH]3)cc2)cc(OC)c1OC | 16.5 | 30.6 | 6.61 | 24.4 | 15.3 | 36.7 | 10.7 | 25.5 | 10.7 | 25.3 | 6.44 | 23.9 | 11.2 | 27.8 | 8.23 | 23.1 | 11.7 | 26.3 | 10.9 | 24.6
